Source: ChEMBL document CHEMBL5120863, “Sophorolipids: Anti-cancer activities and mechanisms” (Bioorg Med Chem, 2022)
Converted amounts (≈) assume the structure as drawn.

Experiments:
HPAC = assay: Cytotoxicity against human HPAC cells assessed as reduction in LDH release at 100 ug/ml measured after 12 hrs by CytoTox96 nonradioactive assay; type: functional; design: scale not given: the % may be the effect or the level left; details: dose 100 µg/ml
[1] = Cytotoxicity against human HUVEC cells assessed as cell growth inhibition measured after 48 hrs by MTT assay; type: toxicity, cell-based
PANC-1 [2] = assay: Cytotoxicity against human PANC-1 cells assessed as cell growth inhibition measured after 48 hrs by MTT assay; type: functional, cell-based; details: PANC-1, 48 h
HCT-116 = assay: Cytotoxicity against human HCT-116 cells assessed as cell growth inhibition measured after 48 hrs by MTT assay; type: functional, cell-based; details: HCT-116, 48 h
HeLa [3] = assay: Cytotoxicity against human HeLa cells assessed as cell growth inhibition measured after 48 hrs by MTT assay; type: functional, cell-based
[4] = Cytotoxicity against human L929 cells assessed as cell growth inhibition measured after 48 hrs by MTT assay; type: toxicity, cell-based; details: mouse
A-431 = assay: Cytotoxicity against human A-431 cells assessed as cell growth inhibition measured after 48 hrs by MTT assay; type: functional, cell-based; details: A-431, 48 h
A549 = assay: Cytotoxicity against human A549 cells assessed as cell growth inhibition measured after 48 hrs by MTT assay; type: functional, cell-based; details: A549, 48 h
PANC-1 [5] = assay: Cytotoxicity against human PANC-1 cells assessed as cell growth inhibition measured after 72 hrs by MTT assay; type: functional, cell-based; details: PANC-1, 72 h
MCF7 = assay: Cytotoxicity against human MCF7 cells assessed as cell growth inhibition measured after 48 hrs by MTT assay; type: functional, cell-based; details: MCF7, 48 h
K562 = assay: Cytotoxicity against human K562 cells assessed as cell growth inhibition measured after 48 hrs; type: functional, cell-based; details: K562, 48 h
HeLa [6] = assay: Cytotoxicity against human HeLa cells assessed as cell growth inhibition measured after 24 hrs by MTT assay; type: functional, cell-based
MDA-MB-231 = assay: Cytotoxicity against human MDA-MB-231 cells assessed as cell growth inhibition measured after 24 hrs by crystal violet staining based assay; type: functional; details: MDA-MB-231, 24 h
HL-60 = assay: Cytotoxicity against human HL-60 cells assessed as cell growth inhibition measured after 48 hrs; type: functional, cell-based; details: HL-60, 48 h
Jurkat = assay: Cytotoxicity against human Jurkat cells assessed as reduction in cell viability at 25 ug/ml measured after 24 hrs; type: functional; details: dose 25 µg/ml

SMILES: CCOC(=O)CCCCCCC/C=C\CCCCCCC(C)O[C@@H]1O[C@H](COC(C)=O)[C@@H](O)[C@H](O)[C@H]1O[C@@H]1O[C@H](CO)[C@@H](O)[C@H](O)[C@H]1O (stereo not given in full)
- Activity (HPAC): 27.4%

SMILES: CCCCCCCCCCCCCCCCO[C@@H]1O[C@H](CO)[C@@H](O)[C@H](O)[C@H]1O[C@@H]1O[C@H](CO)[C@@H](O)[C@H](O)[C@H]1O
- IC50 at 48 h [1]: > 320 µg/mL
- IC50 (PANC-1 [2]): 113 µg/mL (≈ 199 µM)
- IC50 (HCT-116): 62.8 µg/mL (≈ 111 µM)
- IC50 (HeLa [3]): 16.3 µg/mL (≈ 28.8 µM)
- IC50 at 48 h [4]: > 320 µg/mL
- IC50 (A-431): 236 µg/mL (≈ 417 µM)
- IC50 (A549): 236 µg/mL (≈ 416 µM)
- IC50 (PANC-1 [5]): > 100 µg/mL
- IC50 (MCF7): 65.7 µg/mL (≈ 116 µM)

SMILES: CC(=O)OC[C@H]1O[C@H]2OC(C)/C=C/C/C=C/C/C=C\C/C=C/CCCCC(=O)O[C@H]3[C@H](O)[C@@H](O)[C@H](O[C@@H]2[C@@H](O)[C@@H]1O)O[C@@H]3COC(C)=O (stereo not given in full)
- IC50 (K562): 40 µg/mL (≈ 58.6 µM)

SMILES: CC(=O)OC[C@H]1O[C@H]2OC(C)CCCCCCCCCCCCCCCC(=O)O[C@H]3[C@H](O)[C@@H](O)[C@H](O[C@@H]2[C@@H](O)[C@@H]1O)O[C@@H]3COC(C)=O (stereo not given in full)
- IC50 (HeLa [6]): 30.2 µg/mL (≈ 43.7 µM)
- IC50 (MDA-MB-231): 15 µM

SMILES: CC(=O)OC[C@H]1O[C@H]2OC(C)/C=C/C/C=C/C/C=C\CCCCCCCC(=O)O[C@H]3[C@H](O)[C@@H](O)[C@H](O[C@@H]2[C@@H](O)[C@@H]1O)O[C@@H]3COC(C)=O (stereo not given in full)
- IC50 (HeLa [6]): 51.5 µg/mL (≈ 75.2 µM)
- IC50 (MDA-MB-231): 30 µM
- IC50 (HL-60): 5 µg/mL (≈ 7.3 µM)

SMILES: CCOC(=O)CCCCCCC/C=C\CCCCCCC(C)O[C@@H]1O[C@H](COC(C)=O)[C@@H](O)[C@H](O)[C@H]1O[C@@H]1O[C@H](COC(C)=O)[C@@H](O)[C@H](O)[C@H]1O (stereo not given in full)
- Activity (Jurkat): 90%

SMILES: CCCCOC(=O)CCCCCCC/C=C\CCCCCCC(C)O[C@@H]1O[C@H](CO)[C@@H](O)[C@H](O)[C@H]1O[C@@H]1O[C@H](CO)[C@@H](O)[C@H](O)[C@H]1O (stereo not given in full)
- Activity (Jurkat): 0%

SMILES: CCOC(=O)CCCCCCC/C=C\CCCCCCC(C)O[C@@H]1O[C@H](CO)[C@@H](O)[C@H](O)[C@H]1O[C@@H]1O[C@H](CO)[C@@H](O)[C@H](O)[C@H]1O (stereo not given in full)
- Activity (HPAC): 23.6%
- Activity (Jurkat): 0%
